Data published in patent US7560436B2, “Methods of treating gastrointestinal inflammation” (The Regents of the University of California, priority 2005, dated 2009).

Tests used:
[1] = test system: DSS-induced colitis; experiment: DSS-induced colitis in mice (disease activity index, colonic MPO activity, histological score, mortality); assay type: in vivo, mouse; conditions: for DAI (disease activity index) / HS (histological score) / MPO (U/g): 1.5% DSS
From the text: In a previous study the concentration of DSS was identified that was required to induce a similar severity of colitis in the different mouse strains used in this study (Rachmilewitz et al. (2004) Gastroenterology 126:520-528). Mice on the B6 background were given 1.5% (w/v) DSS, mice on the 129/SvEv background were given 4% DSS and mice on the Balb/c background were given 3.5% DSS dissolved in sterile, distilled water ad libitum for 7 days (Rachmilewitz et al. (2004) supra). […] The disease activity index (DAI; the combined score of weight loss and bleeding) was determined as described (Rachmilewitz et al. (2002) Gastroenterology 122:1428-144110; and Rachmilewitz et al. (2004) supra). Briefly, scores are defined as follows: Loss in body weight: 0=no loss; 1=5% to 10%; 2=10% to 15%; 3=15% to 20%; 4=over 20%. Hemoccult: 0=no blood; 2=positive; 4=gross blood.
The colon tissues were longitudinally opened and a 50 mg portion was homogenized in hexadecyltrimethyl-ammonium bromide (0.5%) in 50 mmol/L phosphate buffer, pH6.0. The homogenate was sonicated for 10 seconds, freeze-thawed 3 times, and centrifuged for 15 minutes. An aliquot of the supernatant was taken for determination of enzyme activity as described (Rachmilewitz et al. (2002) supra; and Rachmilewitz et al. (2004) supra).
After 7 days of DSS administration, mice were killed and the entire colon was excised, longitudinally opened, rolled onto a wooden stick, fixed with Bouin's Solution (Sigma, St. Louis, Mo.), and embedded in paraffin. Tissue sections (5 μm) were prepared, deparaffinized, and stained with hematoxylin and eosin. Histological scoring was performed in a blinded fashion. Colonic epithelial damage was scored as follows: 0=normal; 1=hyper-proliferation, irregular crypts, and goblet cell loss; 2=mild to moderate crypt loss (10-50%); 3=severe crypt loss (50-90%); 4=complete crypt loss, surface epithelium intact; 5=small to medium sized ulcer (<10 crypt widths); 6=large ulcer (≧10 crypt widths). Infiltration with inflammatory cells was scored separately for mucosa (0=normal, 1=mild, 2=modest, 3=severe), submucosa (0=normal, 1=mild to modest, 2=severe), and muscle/serosa (0=normal, 1=moderate to severe). Scores for epithelial damage and inflammatory cell infiltration were added, resulting in a total scoring range of 0-12.

[2] = test system: bone marrow-derived myeloid dendritic cells (MDC) from RAG−/− mice; experiment: DNA-PK inhibitor on CpG-ODN-induced cytokine production in MDC; assay type: cell-based, mouse; conditions: various concentrations of NU7026, with or without CpG-ODN
Method: Since deletion of the kinase domain of DNA-PKcs is responsible for the SCID phenotype, the role of DNA-PK in TLR9-mediated type-I IFN induction was investigated. To do so, bone marrow-derived myeloid dendritic cells (MDC) from RAG^−/− mice were incubated with various concentrations of NU7026, a DNA-PK inhibitor (Calbiochem, San Diego, Calif.), with or without CpG-ODN. […] In contrast, the activation of NF-κB, MAPK, IRF-3 and IRF-7 were similar in these cells (FIG. 2B), indicating a specific signaling blockade downstream to TLR9 in SCID but not in RAG^−/− BM-MDC.

[3] = Table 6: SCID mice (B6), 1000 U recombinant mIFN-β i.p. prior to and on days 2, 4, 6, day 7, mean±SEM
[4] = RAG1−/− mice (B6), ODN 10 μg/animal s.c. once 2 h prior, day 7, mean±SEM
[5] = SCID mice (B6), ODN 10 μg/animal s.c. once 2 h prior, day 7, mean±SEM

IFN-β: recombinant murine IFN-β from Chemicon International
disease activity and histological scores (in words) ([1]; DSS-treated SCID mice, recombinant mIFN-β): decreased the disease activity and the histological scores | DAI (disease activity index) [1, 3]: 4.6 ± 0.9^A | HS (histological score) [1, 3]: 6.8 ± 1.2^A | MPO (U/g) [1, 3]: 1.2 ± 0.1 U/g

O=c1cc(N2CCOCC2)oc2c1ccc1ccccc12 [NU7026]
IFN-α/β production induced by CpG-ODN [2]: selectively inhibited IFN-α/β | IL-12 (p40) production induced by CpG-ODN [2]: without affecting IL-12 (p40) production

CpG-ODN-2: phosphodiester and phosphothioate-modified class A CpG-ODN, 5′-Ggtgcatcgatgca GGGGGg-3′; SEQ ID NO:05 (GGTGCATCGATGCAGGGGGG; DNA, linkages s1 o13 s5 (s phosphorothioate, o phosphodiester), methylation of C not given here)
DAI (disease activity index) [1, 4]: 1.9 ± 0.7^A | HS (histological score) [1, 4]: 5.0 ± 0.8^A | MPO (U/g) [1, 4]: 0.9 ± 0.2^A U/g | DAI (disease activity index) [1, 5]: 6.5 ± 0.6 | HS (histological score) [1, 5]: 9.8 ± 0.3 | MPO (U/g) [1, 5]: 1.3 ± 0.1 U/g
